Test results as given in patent publication US20250241901A1, “ACTIVATION OF MNRR1 / CHCHD2 AS A THERAPEUTIC TARGET FOR MITOCHONDRIA ASSOCIATED DISORDERS” (Wayne State University, priority 2024, published 2025).

Key:
[1] = tested on: E. coli-induced placental inflammation; experiment: E. coli-induced placental inflammation model of preterm birth; format: in vivo; conditions: same dosage as in LPS model
Excerpt: Using the E. coli-induced placental inflammation model and methods similar to those described in Spencer et al. (PLoS One, 16(12): e0260370, 2021 doi: 10.1371/journal.pone.0260370), nitazoxanide therapy will be tested using the same dosage as above and in Purandare et al. (Placenta 140:66-71, 8 Jul. 2023; Purandare et al., bioRxiv, Feb. 1, 2023).

[2] = tested on: MELAS patient fibroblasts; experiment: LPS-induced ROS and TNF levels in MELAS patient fibroblasts; format: cell-based, human; conditions: 10 μM + 500 ng/mL LPS, 24 h
Description: FIGS. 8A-8D: MNRR1 activation using tizoxanide enhances mitochondrial function, mitophagy, and protects from LPS-induced inflammation in MELAS patient fibroblasts. FIG. 8A: Equal amounts of lysates from MELAS patient fibroblast (MF 1, 2, or 3) lysates treated with vehicle (DMSO) or tizoxanide (10 μM) for 48 h were separated on an SDS-PAGE gel and probed for LC3B, PGC1a, MNRR1, MTCO2, TOM20, and phospho-ubiquitin (S65) levels. GAPDH orTubulin was probed as a loading control. FIG. 8B: Oxygen consumption measured from MELAS patient fibroblasts treated with vehicle (DMSO) or tizoxanide (10 μM) for 48 h (n=4 biological replicates, mean±SE). FIG. 8C: Mitochondrial ATP rate measured in MELAS patient fibroblasts treated with vehicle (DMSO) or tizoxanide (10 μM) for 48 h (n=4 biological replicates, mean±SE). FIG. 8D: Heatmap representation of ROS and TNFα transcript levels from MELAS patient fibroblasts treated with vehicle (DMSO), LPS (DMSO+500 ng/mL LPS), or LPS plus tizoxanide (10 μM tizoxanide+500 ng/mL LPS) for 24 h (n=4 biological replicates). In all figures, * indicates p<0.05, ** indicates p<0.005.
ROS measurements: Total cellular ROS measurements were performed with CM-H2DCFDA (Life Technologies). […] Cells were washed twice in phosphate buffered saline and analyzed for fluorescence on a BioTek Synergy H1 Microplate Reader (Agilent).

[3] = tested on: MELAS patient fibroblasts; experiment: Heteroplasmy in MELAS patient fibroblasts; format: cell-based, human; conditions: low heteroplasmy levels (<50%)
Description: Restriction Enzyme Digestion: DNA was analyzed for the MELAS mutation as described previously. The A→G mutation creates a new Haelll site at position 3243 that can be amplified by PCR using primers corresponding to the light-strand positions 3116 to 3134 and to the heavy-strand positions 3353 to 3333. Equal amounts of the resulting products were digested with the restriction enzyme Haelll (New England Biolabs) and electrophoresed on a 2.5% agarose gel.

Row | Structure (SMILES) | reducing or preventing pre-term birth [1] | LPS-induced pro-inflammatory response (ROS and TNF levels) [2] | shift of heteroplasmy [3]
1 | CC(=O)Oc1ccccc1C(=O)Nc1ncc([N+](=O)[O-])s1 [nitazoxanide, Nitazoxanide] | effective in reducing or preventing pre-term birth |  | 
2 | O=C(Nc1ncc([N+](=O)[O-])s1)c1ccccc1O [tizoxanide, Tizoxanide] |  | blocked | do not show a shift of heteroplasmy
